# Reference: PubChem BioAssay AID806 (SRMLSC, 2007)
# The source made the active and inactive calls. No rule for the calls is given here.
# Tested on: virus-infected cells, CPE inhibition, dose response
# Assay: PubChem AID 806
# Conditions: for EC90: measured here: EC90 CPE inhibition; for CC50: measured here: cytotoxicity, cell viability IC50
SMILES,EC50,EC90,CC50
COc1ccc(-c2csc(NC(=O)C3CCCCN3S(=O)(=O)c3ccccc3)n2)cc1 (stereo not given),> 60 µM (inactive),> 60 µM,> 60 µM
COc1ccc(OC)c(NC(=O)c2cc3ccccc3o2)c1,> 60 µM (inactive),> 60 µM,> 60 µM
Cc1cc(C)n(S(=O)(=O)/C=C/c2ccccc2)n1,56.5 µM (inactive),> 60 µM,> 60 µM
O=C(c1ccco1)N1CCn2c1nc1ccccc12,> 60 µM (inactive),> 60 µM,> 60 µM
CC1Cc2ccccc2N1C(=O)C1CCCCN1S(=O)(=O)c1ccccc1 (stereo not given),> 60 µM (inactive),> 60 µM,> 60 µM
Cc1ccc(NC(=O)C2CC(=O)OC23CCOC(C)(C)C3)cc1 (stereo not given),> 60 µM (inactive),> 60 µM,> 60 µM
COc1cccc(NC(=O)C2CC(=O)OC23CCOC(C)(C)C3)c1 (stereo not given),> 60 µM (inactive),> 60 µM,> 60 µM
CCCNC(=O)c1noc2c1CCc1ccccc1-2,> 60 µM (inactive),> 60 µM,> 60 µM
CC(c1ccco1)N(C(=O)CSc1ccc(Br)cc1)c1ccccn1 (stereo not given),> 60 µM (inactive),> 60 µM,> 60 µM
CC(C)c1ccc(C2NC(=O)NC3=C2CCc2ccccc23)cc1 (stereo not given),> 60 µM (inactive),> 60 µM,> 60 µM
O=C1CC(C(=O)Nc2ccccc2)C2(CCCC2)O1 (stereo not given),> 60 µM (inactive),> 60 µM,> 60 µM
COc1ccc(NC(=O)C2CCCCN2S(=O)(=O)c2ccc(F)cc2)c(OC)c1 (stereo not given),> 60 µM (inactive),> 60 µM,> 60 µM
Cc1ccc(/C=C/C(=O)c2c(C)cc(C)[nH]c2=O)cc1,> 60 µM (inactive),> 60 µM,> 60 µM
Cc1c(C(=O)Nc2ccncc2)oc2ccccc12,> 60 µM (inactive),> 60 µM,> 60 µM
CCc1ccc(NC(=O)CCS(=O)(=O)c2cccc3nsnc23)cc1,> 60 µM (inactive),> 60 µM,> 60 µM
COC(=O)CSc1nnc(-c2ccncc2)o1,> 60 µM (inactive),> 60 µM,> 60 µM
COc1ccc(NC(=O)C2CCCCN2S(=O)(=O)c2ccc(F)cc2)cc1 (stereo not given),> 60 µM (inactive),> 60 µM,> 60 µM
Cc1cccc(NC(=O)c2cc3ccccc3o2)c1,> 60 µM (inactive),> 60 µM,> 60 µM
Cc1cccc(-n2ncc3c(N4CCc5ccccc54)ncnc32)c1,> 60 µM (inactive),> 60 µM,> 60 µM
CC(C)(C)c1ccc(OCCn2ccccc2=O)cc1,> 60 µM (inactive),> 60 µM,40.9 µM
Cc1ccc(CNC(=O)CCS(=O)(=O)c2cccc3nsnc23)cc1,> 60 µM (inactive),> 60 µM,> 60 µM
NS(=O)(=O)c1ccc(CCNC(=O)C2CCCCN2S(=O)(=O)c2ccccc2)cc1 (stereo not given),> 60 µM (inactive),> 60 µM,> 60 µM
Clc1cccc(Nc2ncnc3c2cnn3-c2ccccc2)c1,> 60 µM (inactive),> 60 µM,> 60 µM

SMILES,EC50,EC90,CC50
CCc1c(C)nc2[nH]nc(-c3ccccc3C)n2c1=O,> 60 µM (inactive),> 60 µM,> 60 µM
O=C1/C(=C\c2ccco2)SC(=S)N1Cc1ccccc1,> 60 µM (inactive),> 60 µM,6.46 µM
CCCCN(C(=O)Cn1nnc2ccccc21)C(C(=O)NCc1ccco1)c1ccncc1 (stereo not given),> 60 µM (inactive),> 60 µM,> 60 µM
Cc1cccc(-n2ncc3c(N4CCCc5ccccc54)ncnc32)c1,> 60 µM (inactive),> 60 µM,> 60 µM
O=Nc1c(O)n(Cc2cccc(Cl)c2)c2ccccc12,> 60 µM (inactive),> 60 µM,> 60 µM
Cc1ccc(-n2nc(C(=O)N3CCOCC3)cc2-c2ccc(Cl)cc2)cc1,> 60 µM (inactive),> 60 µM,7.33 µM
O=C(CCS(=O)(=O)c1cccc2nsnc12)NCc1ccccc1Cl,> 60 µM (inactive),> 60 µM,> 60 µM
Cc1nc2c(C(=O)N3CCOCC3)cnn2c(C)c1Cc1ccc(Cl)cc1,> 60 µM (inactive),> 60 µM,> 60 µM
COc1ccc(C2NC(=O)NC3=C2CCc2ccccc23)cc1 (stereo not given),3.6 µM,> 60 µM,> 60 µM
COc1ccc(S(=O)(=O)Nc2ccc(C)cc2)cc1N(C)S(=O)(=O)c1ccc(Cl)cc1,> 60 µM (inactive),> 60 µM,> 60 µM
COC(=O)c1ccc(CN(C(C)=O)c2ccccc2)o1,> 60 µM (inactive),> 60 µM,> 60 µM
Cc1ccc(-n2ncc3c(Nc4cccc(C(=O)O)c4)ncnc32)cc1,> 60 µM (inactive),> 60 µM,> 60 µM
CC1CCN(c2ccc(C(=O)NCc3cccs3)cn2)CC1,> 60 µM (inactive),> 60 µM,> 60 µM
CCOc1ccc(Nc2ncnc3c2cnn3-c2ccccc2)cc1,> 60 µM (inactive),> 60 µM,> 60 µM
O=C(Nc1ccncc1)c1cc2ccccc2o1,> 60 µM (inactive),> 60 µM,> 60 µM
CC(C)c1cccc(C(C)C)c1OCCCCN1CCCC1,> 60 µM (inactive),> 60 µM,> 60 µM
CCOc1ccc(NC(=O)C2CCCCN2S(=O)(=O)c2ccccc2)cc1 (stereo not given),> 60 µM (inactive),> 60 µM,> 60 µM
Cc1ccc(-c2nnc3ccc(SCC(=O)NCc4ccco4)nn23)cc1,> 60 µM (inactive),> 60 µM,> 60 µM
CC1(C)Cc2c(c(N3CCOCC3)nc3sc4c(NN)ncnc4c23)CS1,> 60 µM (inactive),> 60 µM,4.49 µM
Cc1ccc(S(=O)(=O)N2CCCCC2C(=O)NCc2ccco2)cc1 (stereo not given),> 60 µM (inactive),> 60 µM,> 60 µM
CC1CCCN(c2ccc(C(=O)NCc3cccs3)cn2)C1 (stereo not given),> 60 µM (inactive),> 60 µM,> 60 µM
CCOC(=O)/C=c1\s/c(=C\c2ccccc2OC)c(=O)n1CC(=O)N1CCOCC1,> 60 µM (inactive),> 60 µM,> 60 µM
CCOC(=O)/C=C1\SCC(=O)N1CC(=O)Nc1ccc(C(C)C)cc1,> 60 µM (inactive),> 60 µM,> 60 µM

SMILES,EC50,EC90,CC50
COc1ccc(C2=NOC(C(=O)Nc3cc(C)nn3-c3ccccc3)C2)cc1OC (stereo not given),> 60 µM (inactive),> 60 µM,> 60 µM
CCSc1nnc([C@H](Cc2ccccc2)NC(=O)OC(C)(C)C)o1,> 60 µM (inactive),> 60 µM,> 60 µM
O=C(c1cc(-c2ccc(Cl)cc2)n(-c2ccc(Cl)cc2)n1)N1CCOCC1,> 60 µM (inactive),> 60 µM,4.34 µM
COc1ccc(OC)c(-n2c(SCC(=O)NCc3ccco3)nnc2-c2c[nH]c3ccccc23)c1,> 60 µM (inactive),> 60 µM,> 60 µM
CN1c2ccsc2C(O)=C(C(=S)Nc2ccccc2)S1(=O)=O,> 60 µM (inactive),> 60 µM,> 60 µM
COc1ccccc1NC(=O)CS(=O)(=O)c1cccc2nsnc12,> 60 µM (inactive),> 60 µM,> 60 µM
COC(=O)CSc1nnc(-c2cccnc2)o1,> 60 µM (inactive),> 60 µM,> 60 µM
Nc1c(C(=O)Nc2ccc(Cl)cc2)oc2ccccc12,> 60 µM (inactive),> 60 µM,> 60 µM
O=C(Cc1ccccc1)Nc1ccc(-c2nnc(-c3ccco3)o2)cc1,> 60 µM (inactive),> 60 µM,> 60 µM
CC1CN(C(=O)c2cnn3c(C(F)F)cc(-c4ccccc4)nc23)CC(C)O1 (stereo not given),> 60 µM (inactive),> 60 µM,> 60 µM
O=C(Nc1cccnc1)c1cc2c(ccc3ccccc32)o1,> 60 µM (inactive),> 60 µM,> 60 µM
CCOc1ccc(-c2nnc3ccc(SCC(=O)NCc4ccco4)nn23)cc1,> 60 µM (inactive),> 60 µM,> 60 µM
O=C(c1cnn2c(C(F)F)cc(-c3ccccc3)nc12)N1CCOCC1,> 60 µM (inactive),> 60 µM,> 60 µM
CC(C)c1cccc(C(C)C)c1OCCn1ccnc1,> 60 µM (inactive),> 60 µM,> 60 µM
NC1C2CN(c3nc4c(cc3F)c(=O)c(C(=O)O)cn4-c3ccc(F)cc3F)CC12 (stereo not given),,> 60 µM,45.1 µM
O=C(c1cc(-c2ccc(Cl)cc2)n(-c2cc(Cl)ccc2Cl)n1)N1CCOCC1,> 60 µM (inactive),> 60 µM,> 60 µM
Cc1nnc(SC(=O)N2c3ccccc3Sc3ccccc32)s1,> 60 µM (inactive),> 60 µM,> 60 µM
COc1ccc(OC)c(-n2c(SC)nnc2-c2c[nH]c3ccccc23)c1,> 60 µM (inactive),> 60 µM,> 60 µM
O=C(COc1ccccc1)N(Cc1ccco1)c1ccc(O)cc1,> 60 µM (inactive),> 60 µM,> 60 µM
O=C(O)c1cccc(Nc2ncnc3c2cnn3-c2ccccc2)c1,> 60 µM (inactive),> 60 µM,> 60 µM
Cn1c2ccccc2c(=O)c2c(=O)n(C3CCCCC3)c(-c3cccs3)nc21,59.3 µM (inactive),> 60 µM,6.45 µM
Cc1cccc(NC(=O)C2CC(=O)OC23CCCCC3)c1 (stereo not given),> 60 µM (inactive),> 60 µM,> 60 µM
COc1ccc(NS(=O)(=O)c2ccc(OC)c(N(C)S(=O)(=O)c3ccc(Cl)cc3)c2)cc1,,> 60 µM,22.9 µM
